Source: patent US20050089473A1, “Potassium channel mediated delivery of agents through the blood-brain barrier” (Cedars-Sinai Medical Center, priority 2003, published 2005)
Counter-ions that a name gives are not always drawn.

Experiments:
Assay type in all cases: in vivo, rat
[1] = system: metastatic breast brain tumors; experiment: [14C]AIB uptake in metastatic breast brain tumor model; conditions: intravenous co-injection
[2] = system: RG2 tumor capillary endothelium; experiment: Transmission electron microscopy of vesicular transport in tumor capillary endothelium; conditions: i.c. MS 30 μg/kg/min 15 min
From the text: S., Rao, […]., and Black, K. L. Regulation of blood-brain tumor barrier permeability by calcium-activated potassium channels J. Pharmacol. Exp. Ther., 301:838-851, 2002). […] S., Rao, […]., and Black, K. L. Regulation of blood-brain tumor barrier permeability by calcium-activated potassium channels J. Pharmacol. Exp. Ther., 301:838-851, 2002). Briefly, micrographs were placed on a digitizing screen and structural features measued using Scan […]TM, a computer-assisted, image analysis system (Jandel Scientific, Corte Madera, Calif.). Abluminal and luminal circumferences, areas of endothelial cytoplasm excluding nuclei and vacuoles, and mean thickness of endothelial cytoplasm were measured and compared with those in the control group. The mean thickness of endothelium was calculated by subtraction of the luminal radius from the abluminal radius, which was obtained from the areas encircled by the luminal and abluminal circumferences, respectively. The proportion of total vesicular area to the cytoplasmic area was expressed as a percentage in order to derive another parameter to characterize vesicular transport.

[3] = Physiological measurements during BTB permeability determination
Experimental: All animal experiments were conducted in accordance with policies set by the Institutional Animal Care and Usage Committee and NIH guidelines. A rat syngeneic tumor model was prepared using female Wistar rats and a human-tumor xenograft model in athymic nude rats weighing 180-200 g were prepared for the BBB/BTB permeability studies. Although brain tumor blood vessel development is rapid in rats compared to humans, this variable should not affect the findings or conclusions because the study analyzes the response of blood vessels, regardless of how rapidly they developed, to vasomodulators. The optimum number of tumor cells and incubation period for in vivo tumor growth was determined in separate experiments. Rat glioma (RG2) cells (1×10^5) in 5 μl of medium with 1.2% methylcellulose were injected into the basal ganglia of Wistar rats, while nude rats were injected with glioblastoma multiforme (GBM) primary cells (5×10^5). The coordinates were 5-mm lateral to the bregma and 4.5 mm deep to the basal ganglia. Seven days (for RG2 tumor) and 3-4 weeks (for GBM) after tumor implantation, the rats were prepared for permeability study as described by (Ningarsj, N. S., Rao, M., Hashizume, K., Asotra, K., and Black, K. L. Regulation of blood-brain tumor barrier permeability by calcium-activated potassium channels J. Pharmacol. Exp. Ther., 301:838-851, 2002; Ningaraj, N. S., Rao, M., and Black, K. L. Calcium-dependent potassium channels as a target protein ir. the modulation of blood-brain humor barrier. Drug News and Perspectives, 16:1-8, 2003). In regional permeability studies, 5 min after the start of the intracarotid (i.c.) infusion, 100 μCi/kg of [^14C] AIB, [^14C] dextran or [^14C] carboplatin to 1 ml phosphate buffer saline (PBS) was injected as an intravenous (i.v.) bolus within a 15 second period. To determine whether the infusion of vasomodulators would affect cerebral blood flow (CBF) at the tumor area, Cerebral Laser-Doppler Flowmetry (LDF) using a Laser-Doppler (DRT4, Moore Instruments Ltd., England) equipped with a DP3 optical (1 mm diameter) probe during 15 min i.c. infusion of vasomodulators in some rats (n=3/group) was used as described in Ningarsj, N. S., Rao, M., Hashizume, K., Asotra, K., and Black, K. L. Regulation of blood-brain tumor barrier permeability by calcium-activated potassium channels J. Pharmacol. Exp. Ther., 301:838-851, 2002; and Ningaraj, N. S., Rao, M., and Black, K. L. Calcium-dependent potassium channels as a target protein ir. the modulation of blood-brain humor barrier. Drug News and Perspectives, 16:1-8, 2003. Rats with abnormal CBF, blood gases or blood pressure were excluded from the study.
The physiological parameters were determined either before or during vasomodulator infusion. The values are mean±SD of n>4 rats, except for cerebral blood flowmetry (CBF) where three representative rats per group were used. pH is arterial pH; PaO2 is arterial oxygen; PaCO2 is arterial carbon dioxide; and MAP is mean arterial blood pressure.

[4] = before or during vasomodulator infusion, mean±SD

Structure (SMILES): Nc1cc(N2CCCCC2)nc(N)[n+]1OS(=O)(=O)[O-] [MS, minoxidil sulfate]
- Level of [14C]AIB in brain tumor tissue versus saline [1]: approximately three times as great
- Level of [14C]AIB surrounding the tumor and in contralateral brain versus vehicle [1]: does not differ significantly
- Endothelial tight junction indices in tumor capillaries [2]: did not alter the endothelial tight junction indices
- Vesicular density in tumor capillary endothelium [2]: significantly increased vesicular density
- PaCO2 [3, 4]: 45 ± 1 mm Hg
- PaO2 [3, 4]: 90 ± 5 mm Hg
- pH (arterial pH) [3, 4]: 7.38 ± 0.01
- Effect on CBF ([3]; i.c. 30 μg/kg/min, laser Doppler): not to significantly affect CBF
- CBF (% change vs. vehicle) ([3]; laser-Doppler flowmetry, three rats per group): 8 ± 3 % change vs. vehicle
